# Test results taken from ChEMBL document CHEMBL1134748, “Identification and characterization of a potential ischemia-selective N-methyl-D-aspartate (NMDA) receptor ion-channel blocker, CNS 5788” (Bioorg Med Chem Lett, 2001).
# pIC50, pKi: −log10 of the molar value.
# Key:
# [1] = Cardiac sodium channel blocking activity by [14C]guanidinium flux assay; format: functional
# [2] = target: Sodium channel alpha subunits; brain (Types I, II, III) (Homo sapiens, UniProt P35498+Q99250+Q9NY46); experiment: Neuronal sodium channel blocking activity by [14C]guanidinium flux assay; format: functional
# [3] = target: Glutamate [NMDA] receptor; experiment: In vitro displacement of [3H]MK-801 from N-methyl-D-aspartate glutamate receptor; format: protein-complex assay
# [4] = Half life value of the compound; format: ADME; settings: rat
# Mus musculus = species: Mus musculus; experiment: Effective dose required to block the audiogenic seizures.; format: functional
# [5] = Lowest effective intravenous dose required to observe the behavioral effects (excitation); format: functional
# Rattus norvegicus [6] = experiment: Compound was tested in rotarod motor assay and the effective intravenous dose required to fall from the rod was reported.; format: functional
# Rattus norvegicus [7] = experiment: Compound was tested in hypoxia -ischemia reduction model for percent reduction in lesion volume at the dose 10 mg/kg (ip)
# Rattus norvegicus [8] = experiment: Compound was tested in hypoxia -ischemia reduction model for percent reduction in lesion volume at the dose 20 mg/kg (ip)
# Rattus norvegicus [9] = experiment: Tested in rat middle cerebral artery occlusion model (MACO model) and percent reduction in total lesion volume at the dose of 4.5 mg/kg (combination ip and iv); settings: route intraperitoneal
# Rattus norvegicus [10] = experiment: Tested in rat middle cerebral artery occlusion model (MACO model) and percent reduction in total lesion volume at the dose of 1.5 mg/kg (combination ip and iv); format: functional; settings: route intraperitoneal
# Rattus norvegicus [11] = experiment: Compound was tested in hypoxia -ischemia reduction model for percent reduction in lesion volume at the dose 4 mg/kg (iv); format: functional
pIC50 [1],IC50 [2] [µM],pKi [3],half-life [4] [min],T1/2 [4] [min],SMILES,ED50 (Mus musculus) [mg/kg],Dose [5] [mg/kg],ED50 (Rattus norvegicus [6]) [mg/kg],Reduction (Rattus norvegicus [7]) [%],Reduction (Rattus norvegicus [8]) [%],Reduction (Rattus norvegicus [9]) [%],Reduction (Rattus norvegicus [10]) [%],Reduction (Rattus norvegicus [11]) [%]
4.09,> 25,,,,CN(C(=N)Nc1cc([S+](C)[O-])ccc1Cl)c1cccc([S+](C)[O-])c1 (centres undefined),,,,,,,,
4.53,> 25,6.08,,,CSc1cccc(N(C)C(=N)Nc2cc([S+](C)[O-])ccc2Cl)c1.Cl (centres undefined),,,,,,,,
4.59,> 25,6.49,,,"CSc1ccc(Cl)c(NC(=N)N(C)c2cccc([S+](C)[O-])c2)c1 (single isomer, unassigned; (-))",,,,,,,,
4.59,83.1,6.75,31,,CSc1ccc(Cl)c(NC(=N)N(C)c2cccc([S+](C)[O-])c2)c1 (stereo in doubt; 10),12,4,8.8,60,100,32,,
4.63,> 25,6.63,,32,CSc1ccc(Cl)c(NC(=N)N(C)c2cccc([S+](C)[O-])c2)c1 (stereo in doubt; 15),,,,,,,,

SMILES,pIC50 [1],IC50 [2] [µM],pKi [3],half-life [4] [min],T1/2 [4] [min],ED50 (Mus musculus) [mg/kg],Dose [5] [mg/kg],ED50 (Rattus norvegicus [6]) [mg/kg],Reduction (Rattus norvegicus [7]) [%],Reduction (Rattus norvegicus [8]) [%],Reduction (Rattus norvegicus [9]) [%],Reduction (Rattus norvegicus [10]) [%],Reduction (Rattus norvegicus [11]) [%]
CSc1cccc(N(C)C(=N)Nc2cc(SC)ccc2Cl)c1 [CNS-5161],5.65,1.75,,,,0.9,0.25,0.14,,,,33,74
